Results reported in PubChem BioAssay (NCI).
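Results reflect a 48-hour exposure of cells in 96-well plates to compound at five concentrations. GI50 = concentration required for 50% inhibition of growth. TGI: total growth inhibition.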

Experiments:
Assay in all cases: DTP human tumour cell line panel, 48 h
786-0 renal = test system: 786-0 renal
A498 renal = test system: A498 renal
A549 NSCLC = test system: A549 NSCLC
ACHN renal = test system: ACHN renal
BT-549 breast = test system: BT-549 breast
CAKI-1 renal = test system: CAKI-1 renal
CCRF-CEM leukemia = test system: CCRF-CEM leukemia
COLO 205 colon = test system: COLO 205 colon
DU-145 prostate = test system: DU-145 prostate
EKVX NSCLC = test system: EKVX NSCLC
HCC-2998 colon = test system: HCC-2998 colon
HCT-116 colon = test system: HCT-116 colon
HCT-15 colon = test system: HCT-15 colon
HL-60(TB) leukemia = test system: HL-60(TB) leukemia
HOP-62 NSCLC = test system: HOP-62 NSCLC
HOP-92 NSCLC = test system: HOP-92 NSCLC
HS 578T breast = test system: HS 578T breast
HT29 colon = test system: HT29 colon
IGROV1 ovarian = test system: IGROV1 ovarian
K-562 leukemia = test system: K-562 leukemia
KM12 colon = test system: KM12 colon
LOX IMVI melanoma = test system: LOX IMVI melanoma
M14 melanoma = test system: M14 melanoma
MALME-3M melanoma = test system: MALME-3M melanoma
MCF7 breast = test system: MCF7 breast
MDA-MB-231 breast = test system: MDA-MB-231 breast
MDA-MB-435 = test system: MDA-MB-435
MOLT-4 leukemia = test system: MOLT-4 leukemia
NCI-H226 lung = test system: NCI-H226 lung
NCI-H23 lung = test system: NCI-H23 lung
NCI-H460 lung = test system: NCI-H460 lung
NCI-H522 lung = test system: NCI-H522 lung
NCI/ADR-RES ovarian = test system: NCI/ADR-RES ovarian
OVCAR-3 ovarian = test system: OVCAR-3 ovarian
OVCAR-4 ovarian = test system: OVCAR-4 ovarian
OVCAR-5 ovarian = test system: OVCAR-5 ovarian
OVCAR-8 ovarian = test system: OVCAR-8 ovarian
PC-3 prostate = test system: PC-3 prostate
RPMI-8226 leukemia = test system: RPMI-8226 leukemia
RXF 393 renal = test system: RXF 393 renal
SF-268 CNS = test system: SF-268 CNS
SF-295 CNS = test system: SF-295 CNS
SF-539 CNS = test system: SF-539 CNS
SK-MEL-2 melanoma = test system: SK-MEL-2 melanoma
SK-MEL-28 melanoma = test system: SK-MEL-28 melanoma
SK-MEL-5 melanoma = test system: SK-MEL-5 melanoma
SK-OV-3 ovarian = test system: SK-OV-3 ovarian
SN12C renal = test system: SN12C renal
SNB-19 CNS = test system: SNB-19 CNS
SNB-75 CNS = test system: SNB-75 CNS
SR leukemia = test system: SR leukemia
SW-620 colon = test system: SW-620 colon
T-47D breast = test system: T-47D breast
TK-10 renal = test system: TK-10 renal
U251 CNS = test system: U251 CNS
UACC-257 melanoma = test system: UACC-257 melanoma
UACC-62 melanoma = test system: UACC-62 melanoma
UO-31 renal = test system: UO-31 renal

CC1=C2[C@@H](CC1)[C@]1(C)O[C@@](c3ccccc3)(C[C@H]1OC(=O)CO)[C@H]2OC(=O)/C=C/c1ccccc1 gave a GI50 (786-0 renal) of 5.23 µM, a TGI (786-0 renal) of 25.6 µM and a GI50 (A498 renal) of 96.6 nM. The TGI (A498 renal) was 478 nM, the GI50 (A549 NSCLC) was 14.5 µM and the TGI (A549 NSCLC) was 38 µM. It also gave a GI50 (ACHN renal) of 44.6 nM, a TGI (ACHN renal) of 5.61 µM and a GI50 (BT-549 breast) of 487 nM. The TGI (BT-549 breast) was 15.8 µM, the GI50 (CAKI-1 renal) was 12.5 µM and the TGI (CAKI-1 renal) was 41.4 µM. The GI50 (CCRF-CEM leukemia) was 16.9 µM, the TGI (CCRF-CEM leukemia) was 56.9 µM and the GI50 (COLO 205 colon) was 16 µM. The TGI (COLO 205 colon) was 33.6 µM, the GI50 (DU-145 prostate) was 16.6 µM and the TGI (DU-145 prostate) was 34.5 µM. The GI50 (EKVX NSCLC) was 7.99 µM, the TGI (EKVX NSCLC) was 41.4 µM and the GI50 (HCC-2998 colon) was 15.2 µM. It also gave a TGI (HCC-2998 colon) of 31.6 µM, a GI50 (HCT-116 colon) of 15.4 µM and a TGI (HCT-116 colon) of 31.6 µM. The GI50 (HCT-15 colon) was 13.3 µM, the TGI (HCT-15 colon) was 35.6 µM and the GI50 (HL-60(TB) leukemia) was 7.43 µM. For the same compound, the TGI (HL-60(TB) leukemia) was 27.4 µM, the GI50 (HOP-62 NSCLC) was 17.1 µM and the TGI (HOP-62 NSCLC) was 37.3 µM. The GI50 (HOP-92 NSCLC) was 13.7 µM, the TGI (HOP-92 NSCLC) was 29.7 µM and the GI50 (HS 578T breast) was 30.9 nM. For the same compound, the TGI (HS 578T breast) was 961 nM, the GI50 (HT29 colon) was 15.1 µM and the TGI (HT29 colon) was 34.1 µM. It also gave a GI50 (IGROV1 ovarian) of 24.3 µM, a TGI (IGROV1 ovarian) of 62.4 µM and a GI50 (K-562 leukemia) of 14 µM. The TGI (K-562 leukemia) was 61.9 µM, the GI50 (KM12 colon) was 14.8 µM and the TGI (KM12 colon) was 34.7 µM. It also gave a GI50 (LOX IMVI melanoma) of 15.9 µM, a TGI (LOX IMVI melanoma) of 32.3 µM and a GI50 (M14 melanoma) of 15.8 µM. The TGI (M14 melanoma) was 39.1 µM, the GI50 (MALME-3M melanoma) was 20.1 µM and the TGI (MALME-3M melanoma) was 42.8 µM. For the same compound, the GI50 (MCF7 breast) was 8.86 µM, the TGI (MCF7 breast) was 32.1 µM and the GI50 (MDA-MB-231 breast) was 19.2 µM. The TGI (MDA-MB-231 breast) was 49.5 µM, the GI50 (MDA-MB-435) was 16.2 µM and the TGI (MDA-MB-435) was 35.9 µM. It also gave a GI50 (MOLT-4 leukemia) of 13 µM, a TGI (MOLT-4 leukemia) of 45.1 µM and a GI50 (NCI-H226 lung) of 16.6 µM. The TGI (NCI-H226 lung) was 37.2 µM, the GI50 (NCI-H23 lung) was 17.1 µM and the TGI (NCI-H23 lung) was 44.9 µM. For the same compound, the GI50 (NCI-H460 lung) was 16 µM, the TGI (NCI-H460 lung) was 38.2 µM and the GI50 (NCI-H522 lung) was 16.8 µM. For the same compound, the TGI (NCI-H522 lung) was 45.4 µM, the GI50 (NCI/ADR-RES ovarian) was 348 nM and the TGI (NCI/ADR-RES ovarian) was 16 µM. It also gave a GI50 (OVCAR-3 ovarian) of 15 µM, a TGI (OVCAR-3 ovarian) of 30.6 µM and a GI50 (OVCAR-4 ovarian) of 15.2 µM. The TGI (OVCAR-4 ovarian) was 43 µM, the GI50 (OVCAR-5 ovarian) was 20.2 µM and the TGI (OVCAR-5 ovarian) was 47.4 µM. It also gave a GI50 (OVCAR-8 ovarian) of 354 nM, a TGI (OVCAR-8 ovarian) of 19.9 µM and a GI50 (PC-3 prostate) of 8.56 µM. The TGI (PC-3 prostate) was 31.5 µM, the GI50 (RPMI-8226 leukemia) was 12.8 µM and the TGI (RPMI-8226 leukemia) was 43.7 µM. The GI50 (RXF 393 renal) was 38.8 nM, the TGI (RXF 393 renal) was 1310 nM and the GI50 (SF-268 CNS) was 2780 nM. The TGI (SF-268 CNS) was 32.5 µM, the GI50 (SF-295 CNS) was 12.8 µM and the TGI (SF-295 CNS) was 31.7 µM. It also gave a GI50 (SF-539 CNS) of 16.9 µM, a TGI (SF-539 CNS) of 35.8 µM and a GI50 (SK-MEL-2 melanoma) of 16.8 µM. The TGI (SK-MEL-2 melanoma) was 38.4 µM, the GI50 (SK-MEL-28 melanoma) was 18.1 µM and the TGI (SK-MEL-28 melanoma) was 42.2 µM. For the same compound, the GI50 (SK-MEL-5 melanoma) was 15.3 µM, the TGI (SK-MEL-5 melanoma) was 29.7 µM and the GI50 (SK-OV-3 ovarian) was 19 µM. The TGI (SK-OV-3 ovarian) was 44.8 µM, the GI50 (SN12C renal) was 1140 nM and the TGI (SN12C renal) was 30.2 µM. It also gave a GI50 (SNB-19 CNS) of 22.1 µM, a TGI (SNB-19 CNS) of 59.8 µM and a GI50 (SNB-75 CNS) of 14.2 µM. For the same compound, the TGI (SNB-75 CNS) was 53.6 µM, the GI50 (SR leukemia) was 12 µM and the TGI (SR leukemia) was 44.8 µM. The GI50 (SW-620 colon) was 21.9 µM, the TGI (SW-620 colon) was 60 µM and the GI50 (T-47D breast) was 9.37 µM. The TGI (T-47D breast) was 48.8 µM, the GI50 (TK-10 renal) was 21.9 µM and the TGI (TK-10 renal) was 49.3 µM. The GI50 (U251 CNS) was 13.9 µM, the TGI (U251 CNS) was 28.1 µM and the GI50 (UACC-257 melanoma) was 22.6 µM. The TGI (UACC-257 melanoma) was 49.9 µM, the GI50 (UACC-62 melanoma) was 15.3 µM and the TGI (UACC-62 melanoma) was 36 µM. It also gave a GI50 (UO-31 renal) of 618 nM and a TGI (UO-31 renal) of 27.6 µM.
